Measured values as given in ChEMBL document CHEMBL5625222, “Design, synthesis, and biological evaluation of 1,6-naphthyridine-2-one derivatives as novel FGFR4 inhibitors for the treatment of colorectal cancer” (Eur J Med Chem, 2023).
Active and inactive are the calls of the source. No cut-off for these calls is given here.

Legend:
[1] = target: Fibroblast growth factor receptor 3 (Homo sapiens, UniProt P22607); test: Inhibition of FGFR3 (unknown origin) kinase activity
[2] = Drug uptake in BALB/c mouse colon at 20 mg/kg,ip administrated for 2 hrs by LC-MS analysis; assay type: ADME, organism-based; details: in vivo
[3] = test system: HCT-116; test: Antiproliferative activity against human HCT-116 cells assessed as inhibition of cell growth incubated for 48 hrs by EdU staining method; assay type: functional, cell-based
[4] = test system: RKO; test: Antiproliferative activity against human RKO cells assessed as inhibition of cell growth incubated for 48 hrs by EdU staining method; assay type: functional, cell-based
[5] = test system: SW480; test: Induction of cell cycle arrest in human SW480 cells assessed as accumulation of cells at G2/M phase incubated for 48 hrs by propidium iodide staining based flow cytometry; assay type: functional
[6] = test system: HCT-116; test: Induction of cell cycle arrest in human HCT-116 cells assessed as downregulation of cyclin B1 expression at 1.5 to 6 uM by immunoblotting analysis; assay type: functional, cell-based; details: dose 1.5-6 µM
[7] = test system: HCT-116; test: Induction of cell cycle arrest in human HCT-116 cells assessed as downregulation of CDC2 expression at 1.5 to 6 uM by immunoblotting analysis; assay type: functional, cell-based; details: dose 1.5-6 µM
[8] = test system: SW480; test: Induction of cell cycle arrest in human SW480 cells assessed as downregulation of cyclin B1 expression at 1.5 to 6 uM by immunoblotting analysis; assay type: functional, cell-based; details: dose 1.5-6 µM
[9] = test system: RKO; test: Induction of cell cycle arrest in human RKO cells assessed as downregulation of cyclin B1 expression at 1.5 to 6 uM by immunoblotting analysis; assay type: functional, cell-based; details: dose 1.5-6 µM
[10] = test system: HCT-116; test: Induction of apoptosis in human HCT-116 cells at 3 to 12 uM incubated for 48 hrs by Annexin V-FITC/PI staining based flow cytometric analysis relative to control; assay type: functional; details: dose 3-12 µM
[11] = test system: HCT-116; test: Induction of apoptosis in human HCT-116 cells assessed as downregulation of ratio of Bcl-2/Bax expression at 3 to 12 uM incubated for 48 hrs by Western blotting analysis; assay type: functional, cell-based; details: dose 3-12 µM
[12] = test system: SW480; test: Induction of apoptosis in human SW480 cells assessed as downregulation of ratio of Bcl-2/Bax expression at 3 to 12 uM incubated for 48 hrs by Western blotting analysis; assay type: functional, cell-based; details: dose 3-12 µM
[13] = test system: RKO; test: Induction of apoptosis in human RKO cells assessed as downregulation of ratio of Bcl-2/Bax expression at 3 to 12 uM incubated for 48 hrs by Western blotting analysis; assay type: functional, cell-based; details: dose 3-12 µM
[14] = test system: HCT-116; test: Anti-migration activity in human HCT-116 cells assessed as upregulation of E-cad expression by Western blotting analysis; assay type: functional, cell-based
[15] = test system: HCT-116; test: Anti-migration activity in human HCT-116 cells assessed as downregulation of FAK phosphorylation by Western blotting analysis; assay type: functional, cell-based
[16] = test system: SW480; test: Anti-migration activity in human SW480 cells assessed as loss of actin cytoskeletal fibers at 3 to 12 uM by immunofluorescence assay; assay type: functional, cell-based; details: dose 3-12 µM
[17] = test system: SW480; test: Anti-migration activity in human SW480 cells assessed as change in N-cad expression at 3 to 12 uM by Western blotting analysis; assay type: functional, cell-based; details: dose 3-12 µM
[18] = test system: SW480; test: Anti-migration activity in human SW480 cells assessed as change in FAK expression at 3 to 12 uM by Western blotting analysis; assay type: functional, cell-based; details: dose 3-12 µM
[19] = test system: RKO; test: Anti-migration activity in human RKO cells assessed as loss of actin cytoskeletal fibers at 3 to 12 uM by immunofluorescence assay; assay type: functional, cell-based; details: dose 3-12 µM
[20] = test system: RKO; test: Anti-migration activity in human RKO cells assessed as change in N-cad expression at 3 to 12 uM by Western blotting analysis; assay type: functional, cell-based; details: dose 3-12 µM
[21] = Toxicity in ICR mouse assessed as change in body weight at 20 mg/kg,po administrated for 1 week; assay type: organism-based; details: in vivo, 168 h, time 1 weeks
[22] = Toxicity in ICR mouse assessed as change in liver weight at 20 mg/kg,po administrated for 1 week; assay type: organism-based; details: in vivo, 168 h, time 1 weeks
[23] = Toxicity in ICR mouse assessed as change in liver weight at 60 mg/kg,po administrated for 1 week; assay type: organism-based; details: in vivo, 168 h, time 1 weeks
[24] = Hepatotoxicity in ICR mouse assessed as change in serum creatinine level at 20 mg/kg,po administrated for 1 week; assay type: toxicity, organism-based; details: in vivo, 168 h, time 1 weeks
[25] = Hepatotoxicity in ICR mouse assessed as change in serum AST level at 20 mg/kg,po administrated for 1 week; assay type: toxicity, organism-based; details: in vivo, 168 h, time 1 weeks
[26] = Hepatotoxicity in ICR mouse assessed as change in serum AST level at 60 mg/kg,po administrated for 1 week; assay type: toxicity, organism-based; details: in vivo, 168 h, time 1 weeks
[27] = test system: HCT-116; test: Antitumor activity against human HCT-116 cells xenografted in BALB/c mouse assessed as tumor growth inhibition at 20 mg/kg,ip administrated for 2 weeks relative to control; assay type: functional; details: HCT-116, 336 h, read-out: TGI
[28] = Toxicity in BALB/c mouse xenografted with human HCT-116 cells assessed as change in lung weight at 10 mg/kg,ip administrated for 2 weeks; assay type: organism-based; details: in vivo, 336 h
[29] = Toxicity in BALB/c mouse xenografted with human HCT-116 cells assessed as change in lung weight at 20 mg/kg,ip administrated for 2 weeks; assay type: organism-based; details: in vivo, 336 h
[30] = Toxicity in BALB/c mouse xenografted with human HCT-116 cells assessed as change in liver weight at 10 mg/kg,ip administrated for 2 weeks; assay type: organism-based; details: in vivo, 336 h
[31] = Toxicity in BALB/c mouse xenografted with human HCT-116 cells assessed as change in kidney weight at 20 mg/kg,ip administrated for 2 weeks; assay type: organism-based; details: in vivo, 336 h
[32] = test system: HCT-116; test: Antitumor activity against human HCT-116 cells xenografted in BALB/c mouse assessed as change in cell morphology at 20 mg/kg,ip administrated for 2 weeks by hematoxylin and eosin staining based analysis; assay type: functional, organism-based
[33] = Toxicity in BALB/c mouse xenografted with human HCT-116 cells assessed as histopathological change in liver at 10 mg/kg,ip administrated for 2 weeks by hematoxylin and eosin staining based analysis; assay type: organism-based; details: in vivo, 336 h
[34] = Toxicity in BALB/c mouse xenografted with human HCT-116 cells assessed as histopathological change in kidney at 20 mg/kg,ip administrated for 2 weeks by hematoxylin and eosin staining based analysis; assay type: organism-based; details: in vivo, 336 h
[35] = test system: HCT-116; test: Antitumor activity against human HCT-116 cells xenografted in BALB/c mouse assessed as downregulation of N-cad expression in tumor at 10 mg/kg,ip administrated for 2 weeks by Western blotting analysis; assay type: functional, organism-based
[36] = test system: HCT-116; test: Antitumor activity against human HCT-116 cells xenografted in BALB/c mouse assessed as downregulation of FAK phosphorylation in tumor at 20 mg/kg,ip administrated for 2 weeks by Western blotting analysis; assay type: functional, organism-based
[37] = test system: HCT-116; test: Antitumor activity against human HCT-116 cells xenografted in BALB/c mouse assessed as downregulation of FGFR4 signalling pathway in tumor at 10 mg/kg,ip administrated for 2 weeks by Western blotting analysis; assay type: functional, organism-based
[38] = test system: HCT-116; test: Antitumor activity against human HCT-116 cells xenografted in BALB/c mouse assessed as decrease in Ki67 expression in tumor tissue at ip administrated for 2 weeks by immunohistochemical analysis; assay type: functional, organism-based
[39] = test system: HCT-116; test: Antitumor activity against human HCT-116 cells xenografted in BALB/c mouse assessed as decrease in E-Cad expression in tumor tissue at ip administrated for 2 weeks by immunohistochemical analysis; assay type: functional, organism-based
[40] = test system: SW480; test: cells; details: Homo sapiens, SW480, 48 h
Description: Antiproliferative activity against human SW480 cells assessed as inhibition of cell growth incubated for 48 hrs by MTT assay

Fibroblast growth factor receptor 3, sequence (P22607 whole entry): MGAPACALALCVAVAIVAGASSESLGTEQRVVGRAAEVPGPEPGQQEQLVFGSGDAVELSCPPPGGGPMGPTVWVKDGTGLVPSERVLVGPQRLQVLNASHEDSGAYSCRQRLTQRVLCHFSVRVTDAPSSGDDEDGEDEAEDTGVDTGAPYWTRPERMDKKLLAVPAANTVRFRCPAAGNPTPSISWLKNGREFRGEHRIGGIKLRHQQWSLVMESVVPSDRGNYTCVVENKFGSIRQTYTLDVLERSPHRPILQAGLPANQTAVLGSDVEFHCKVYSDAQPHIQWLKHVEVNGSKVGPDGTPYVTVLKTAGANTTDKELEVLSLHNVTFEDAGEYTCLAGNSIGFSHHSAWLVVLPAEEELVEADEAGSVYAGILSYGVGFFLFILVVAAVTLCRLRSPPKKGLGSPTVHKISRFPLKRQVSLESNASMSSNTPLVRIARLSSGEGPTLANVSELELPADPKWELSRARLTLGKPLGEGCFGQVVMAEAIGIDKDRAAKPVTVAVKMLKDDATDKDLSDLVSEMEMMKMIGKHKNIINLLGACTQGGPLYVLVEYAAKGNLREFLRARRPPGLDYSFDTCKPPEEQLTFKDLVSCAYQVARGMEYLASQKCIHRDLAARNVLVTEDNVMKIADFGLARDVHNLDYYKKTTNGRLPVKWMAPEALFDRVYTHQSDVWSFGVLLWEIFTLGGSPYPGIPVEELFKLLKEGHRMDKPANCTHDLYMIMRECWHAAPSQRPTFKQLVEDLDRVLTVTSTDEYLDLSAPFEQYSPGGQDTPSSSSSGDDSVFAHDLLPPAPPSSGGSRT

C=CC(=O)NCCCn1c(=O)c(-c2c(Cl)c(OC)cc(OC)c2Cl)cc2cnc(Nc3c(C)cccc3NC(=O)C=C)cc21
IC50 [1]: 0.225 µM
Drug uptake [2]: Active
Activity [3]: Dose-Dependent Effect
Activity [4]: Dose-Dependent Effect
Activity [5]: Dose-Dependent Effect
Activity [6]: Active
Activity [7]: Active
Activity [8]: Active
Activity [9]: Active
Activity [10]: 0.64%
Activity [11]: Active
Activity [12]: Active
Activity [13]: Active
Activity [14]: Dose-Dependent Effect
Activity [15]: Dose-Dependent Effect
Activity [16]: Active
Activity [17]: inactive
Activity [18]: inactive
Activity [19]: Active
Activity [20]: inactive
Activity [21]: Non-Toxic
Activity [22]: Non-Toxic
Activity [23]: Non-Toxic
Activity [24]: Non-Toxic
Activity [25]: Non-Toxic
Activity [26]: Non-Toxic
inhibition in vivo at 20 mg/kg [27]: 70.5%
Activity [28]: Non-Toxic
Activity [29]: Non-Toxic
Activity [30]: Non-Toxic
Activity [31]: Non-Toxic
Activity [32]: Active
Activity [33]: Non-Toxic
Activity [34]: Non-Toxic
Activity [35]: Active
Activity [36]: Active
Activity [37]: Active
Activity [38]: Dose-Dependent Effect
Activity [39]: Dose-Dependent Effect
IC50 [40]: 6.99 µM
